Assay results published in patent US20140243292A1, “SUBSITUTED 2-(CHROMAN-6-YLOXYL)-THIAZOLES AND THEIR USE AS PHARMACEUTICALS” (Sanofi, priority 2011, published 2014).

Columns and labels:
human NCX1 = molecular target: T1, human NCX1 (Homo sapiens, UniProt P32418); assay: NCX1 inhibition, reverse mode (Ca2+ influx into cells), FLIPR Fluo-4 assay; format: cell-based; details: inhibition of NCX1 in reverse mode (Ca2+ influx into cells); read-out: NCX1rv IC50
T1 construct: expressed in transfected cells
Outline: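 CHO cells stably expressing human NCX1 were loaded with 2 µM Fluo-4 AM for 80 min at room temperature, then preincubated with compound for 45 min at 16 °C in pH 7.4 HEPES buffer (3.5 mM CaCl2, 2.5 mM probenecid). Reverse-mode Ca2+ influx was triggered by 20 µM final gramicidin and read at 520 nm on FLIPR. IC50 came from % inhibition of max−min fluorescence.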

Sprague-Dawley rats = assay: In vivo method for determining the effect on heart contractility (left ventricular dp/dtmax); details: Rattus norvegicus, iv, anesthetized rats, vs solvent control, read-out: Contractility increase (%); for change in vivo at 0.1 mg/kg: i.v. bolus injection 0.1 mg/kg; for change in vivo at 0.3 mg/kg: i.v. bolus injection 0.3 mg/kg; for change in vivo at 1 mg/kg: i.v. bolus injection 1.0 mg/kg
Protocol: Adult male Sprague-Dawley rats (Harlan Winkelmann, Borchen, Germany) weighing 340 to 370 g were anesthetized with pentobarbital (100 mg/kg i.p.) and ventilated with a mixture of oxygen (40%) and room air (60%) at a tidal volume of 1 ml/100 g at 60 breaths/min. Body temperature was maintained at 36.5±0.3° C. with a heating lamp and was monitored with a rectal thermo sensor. Systemic blood pressure was measured in the left carotid artery using a pressure transducer (Combitrans; B. Braun Melsungen AG, Melsungen, Germany) connected to a DC-bridge-amplifier (PLUGSYS/ADC Type 663; Harvard Apparatus GmbH, March-Hugstetten, Germany). The electrocardiogram was measured as lead II via subcutaneously placed electrodes connected to a Heart-Rate-Module ([…] Type 669; Harvard Apparatus GmbH, March-Hugstetten, Germany). A micro-tip catheter (2 French, SPR-320; Millar Instruments, Houston, Tex., USA) was placed via the right carotid artery into the left ventricle, and the left ventricular pressure (LVP) and the enddiastolic pressure (EDP) were continuously measured. Registration of the hemodynamic data was performed via an analog digital converter by a personal computer using Notocord software (HEM version 3.5). Left ventricular contractility (dp/dtmax) and relaxation (dp/dtmin) were calculated from the LVP signal. For intravenous administration of the test compounds, the left jugular vein was prepared and a PP-50 catheter was inserted. Test compounds were administered either by intravenous bolus injection or by intravenous infusion by means of an infusion pump (Unita; B. Braun Melsungen AG, Melsungen, Germany). […] In a typical experiment, several dosages of the test compound were administered subsequently at increasing doses. Statistical significance of the data obtained with drug vs. control experiments, in which solvent was administered, was evaluated with the 2-sided ANOVA test (program Everstat). Increases in left ventricular contractility (percent increase) by example compounds are given in Table 3 in comparison to control experiments in which solvent was administered.

IC50 (human NCX1) [nM]	Compound	change in vivo at 0.1 mg/kg (Sprague-Dawley rats) [%]	change in vivo at 0.3 mg/kg (Sprague-Dawley rats) [%]	change in vivo at 1 mg/kg (Sprague-Dawley rats) [%]
400	Cc1ccccc1C1CCc2cc(Oc3ncc(C(=O)NCCO)s3)ccc2O1 (centres unmarked) [Example 299, 2-(2-o-Tolyl-chroman-6-yloxy)-thiazole-5-carboxylic acid (2-hydroxy-ethyl)-amide]	36	62	95
600	Cc1ccccc1C1CCc2cc(Oc3ncc(CNC(=O)c4ccno4)s3)ccc2O1 (centres unmarked) [Example 329, Isoxazole-5-carboxylic acid [2-(2-o-tolyl-chroman-6-yloxy)-thiazol-5-ylmethyl]-amide]	24	53	101
